Paper PMC5602100, “Retro analog concept: comparative study on physico-chemical and biological properties of selected antimicrobial peptides” (Amino Acids, 2017)
Like-named read-outs stand apart in the source and are kept apart here. Ends that are not written are not given here.

Tests used:
A. niger ATCC 16404 = system: A. niger ATCC 16404
Experimental: (§1) The minimal inhibitory concentrations (MICs) for bacteria and fungi were determined by the broth microdilution method according to the Clinical and Laboratory Standards Institute (CLSI) protocol (Clinical and Laboratory Standards Institute (CLSI) [2002], [2012]). For this purpose, the initial inoculums of bacteria (5 × 10^5 CFU/mL) in Mueller–Hinton Broth (Biocorp, Warsaw, Poland) were exposed to the ranging concentrations of compounds (0.125–256 µg/mL) and incubated for 18 h at 37 °C. In case of fungi, the initial inoculums of 2 × 10^3 CFU/mL in RPMI-1640 (Sigma-Aldrich, Steinheim, Germany) were exposed to the ranging concentrations of compounds (0.5–256 µg/mL) and incubated for 24 h at 37 °C. The experiments were conducted on 96-well microtiter plates, with the final volume of 100 µL. Cell densities were adjusted spectrophotometrically (Multiskan™ GO Microplate Spectrophotometer, Thermo Scientific) at the wavelengths of 600 nm for bacteria and 530 nm for fungi. The MIC was taken as the lowest drug concentration at which a noticeable growth of microorganisms was inhibited. Reference strains of bacteria: Escherichia coli ATCC 25922, E. coli ATCC 23506, Enterococcus faecalis PCM 2673, Klebsiella pneumoniae ATCC 700603, Pseudomonas aeruginosa ATCC 9027, Staphylococcus aureus ATCC 25923, S. aureus 9144, Streptococcus pneumoniae ATCC 49619, and fungi: Aspergillus niger ATCC 16404, Candida albicans ATCC 10231, and C. glabrata ATCC 15126 were obtained from Polish Collection of Microorganisms (PCM, Polish Academy of Sciences, Wroclaw, Poland) and from American Type Culture Collection (ATCC). All experiments were conducted in triplicate.

C. albicans ATCC 10231 = system: C. albicans ATCC 10231
Experimental: as §1

C. glabrata ATCC 15126 = system: C. glabrata ATCC 15126
Experimental: as §1

E. coli ATCC 23506 = conditions: ATCC 23506, 18 h
Experimental: as §1

E. coli ATCC 25922 = conditions: ATCC 25922, 18 h
Experimental: as §1

E. faecalis PCM 2673 = conditions: PCM 2673, 18 h
Experimental: as §1

[1] = system: K. pneumoniae ATCC 700603
Experimental: as §1

P. aeruginosa ATCC 9027 = conditions: ATCC 9027, 18 h
Experimental: as §1

S. aureus ATCC 25923 = conditions: ATCC 25923, 18 h
Experimental: as §1

S. aureus ATCC 9144 = conditions: ATCC 9144, 18 h
Experimental: as §1

S. pneumoniae ATCC 49619 = conditions: ATCC 49619, 18 h
Experimental: as §1

[2] = system: human red blood cells (RBCs); experiment: Hemolysis assay; type: cell-based; conditions: fresh human RBCs 4% (v/v) in PBS, 60 min at 37 °C, absorbance 540 nm, 100% control 1% Triton-X 100, triplicate
Experimental: The hemolysis assay was conducted according to the procedure described previously in the literature (Avrahami and Shai [2004]). Fresh human red blood cells (RBCs) with EDTA as anticoagulant were rinsed three times with a phosphate-buffer saline (PBS) by centrifugation at 800×g for 10 min and resuspended in PBS. Serial dilution of peptides (1–512 µg/mL) was conducted in PBS on 96-well plates. Then the stock solution of RBCs was added to reach a final volume of 100 µL with a 4% concentration of erythrocytes (v/v). The control wells for 0 and 100% hemolysis consisted of RBCs suspended in PBS and 1% of Triton-X 100, respectively. Subsequently, the plates were incubated for 60 min at 37 °C and then centrifuged at 800×g for 10 min at 4 °C (Sorvall ST 16R Centrifuge, Thermo Scientific). After centrifugation the supernatant was carefully […] to new microtiter plates and the release of hemoglobin was monitored by measurement of absorbance at 540 nm (Multiskan™ GO Microplate Spectrophotometer, Thermo Scientific). All experiments were conducted in triplicate.

[3] = broth microdilution (CLSI), 2 × 10^3 CFU/mL in RPMI-1640, 0.5–256 µg/mL, 24 h at 37 °C, triplicate

Substance | MIC, A. niger ATCC 16404 (A. niger ATCC 16404; ATCC 16404, 24 h) | MIC, C. albicans ATCC 10231 (C. albicans ATCC 10231; ATCC 10231, 24 h) | MIC, C. glabrata ATCC 15126 (C. glabrata ATCC 15126; ATCC 15126, 24 h) | MIC, E. coli ATCC 23506 (E. coli ATCC 23506) | MIC, E. coli ATCC 25922 (E. coli ATCC 25922) | MIC, E. faecalis PCM 2673 (E. faecalis PCM 2673) | MIC, K. pneumoniae ATCC 700603 ([1]; ATCC 700603, 18 h) | MIC, P. aeruginosa ATCC 9027 (P. aeruginosa ATCC 9027) | MIC, S. aureus ATCC 25923 (S. aureus ATCC 25923) | MIC, S. aureus ATCC 9144 (S. aureus ATCC 9144) | MIC, S. pneumoniae ATCC 49619 (S. pneumoniae ATCC 49619) | MIC, A. niger ATCC 16404 (A. niger ATCC 16404; [3]) | MIC, C. albicans ATCC 10231 (C. albicans ATCC 10231; [3]) | MIC, C. glabrata ATCC 15126 (C. glabrata ATCC 15126; [3]) | MIC, K. pneumoniae ATCC 700603 ([1]; broth microdilution (CLSI), 5 × 10^5 CFU/mL in Mueller–Hinton Broth, 0.125–256 µg/mL, 18 h at 37 °C, triplicate) | rate of hemolysis at MIC concentrations [2]
FLPLIGRVLSGIL-NH2 [temporin A] | 256 µg/mL | 256 µg/mL | >256 µg/mL | >256 µg/mL | 256 µg/mL | 64 µg/mL | 128 µg/mL | >256 µg/mL | 4 µg/mL | 8 µg/mL | >256 µg/mL | – | – | – | – | –
LIGSLVRGILPLF-NH2 [r-temporin A] | 256 µg/mL | 256 µg/mL | >256 µg/mL | 256 µg/mL | 256 µg/mL | 256 µg/mL | 128 µg/mL | 256 µg/mL | 64 µg/mL | 64 µg/mL | >256 µg/mL | – | – | – | – | –
GLFDIIKKIAESF-NH2 [aurein 1.2] | – | – | – | 128 µg/mL | 128 µg/mL | 64 µg/mL | – | 256 µg/mL | 128 µg/mL | 128 µg/mL | 64 µg/mL | 64 µg/mL | 128 µg/mL | 128 µg/mL | 16 µg/mL | lower than 10%
FSEAIKKIIDFLG-NH2 [r-aurein 1.2] | >256 µg/mL | >256 µg/mL | >256 µg/mL | 256 µg/mL | 256 µg/mL | 256 µg/mL | 128 µg/mL | >256 µg/mL | >256 µg/mL | >256 µg/mL | 256 µg/mL | – | – | – | – | –
GIGKFLKKAKKFGKAFVKILKK-NH2 [pexiganan] | 16 µg/mL | 256 µg/mL | 256 µg/mL | 2 µg/mL | 4 µg/mL | 16 µg/mL | 1 µg/mL | 2 µg/mL | 8 µg/mL | 8 µg/mL | 1 µg/mL | – | – | – | – | –
